Results published in ChEMBL document CHEMBL1134276, “Synthesis and antibacterial activity of acylides (3-O-acyl-erythromycin derivatives): a novel class of macrolide antibiotics” (2001).
In brackets after ≈: the same amount, converted by molar mass.

Experiments:
[1] = system: Staphylococcus aureus; test: In vitro antibacterial activity against erythromycin-susceptible Staphylococcus aureus 209P-JC strain; assay type: functional
[2] = system: Staphylococcus aureus; test: In vitro antibacterial activity against an inducibly MLS B resistant Staphylococcus aureus B1 strain; assay type: functional
[3] = system: Staphylococcus aureus; test: In vitro antibacterial activity against constitutively MLS B resistant Staphylococcus aureus SR138 strain encoded by an ermA gene; assay type: functional
[4] = system: Haemophilus influenzae; test: In vitro antibacterial activity against erythromycin-susceptible Hemophilus influenzae ATCC 43095 strain; assay type: functional
[5] = system: Staphylococcus aureus; test: In vivo minimum inhibitory concentration against erythromycin susceptible Staphylococcus aureus Smith strain by mouse protection test; assay type: functional
[6] = system: Mus musculus; test: In vivo effective dose against erythromycin susceptible Staphylococcus aureus strain Smith by mouse protection test; assay type: functional
[7] = system: Enterococcus faecalis; test: In vitro antibacterial activity against erythromycin-susceptible Enterococcus faecalis ATCC 29212 strain; assay type: functional
[8] = system: Streptococcus pneumoniae; test: In vitro antibacterial activity against MLS-B resistant Streptococcus pneumoniae 221 strain encoded by an erm B gene; assay type: functional
[9] = system: Streptococcus pneumoniae; test: In vitro antibacterial activity against erythromycin-susceptible Streptococcus pneumoniae IID553 strain; assay type: functional
[10] = system: Enterococcus faecium; test: In vitro antibacterial activity against erythromycin-susceptible Enterococcus faecium ATCC 19434 strain; assay type: functional
[11] = system: Streptococcus pneumoniae; test: In vitro antibacterial activity against erythromycin efflux resistant Streptococcus pneumoniae 210 strain; assay type: functional
[12] = system: Enterococcus faecalis; test: In vitro antibacterial activity against erythromycin-susceptible Enterococcus faecalis ATCC 19434 strain; assay type: functional
[13] = system: Staphylococcus aureus; test: (§1) In vivo effective dose against erythromycin susceptible Staphylococcus aureus Smith strain by mouse protection test(95% confidence limits); assay type: functional
[14] = system: Streptococcus pneumoniae; test: In vitro antibacterial activity against constitutively MLS B resistant […] strain encoded by an ermB gene; assay type: functional
[15] = system: Enterococcus faecium; test: In vitro antibacterial activity against erythromycin-susceptible Enterococcus faecium ATCC 29212 strain; assay type: functional
[16] = system: Staphylococcus aureus; test: In vivo Minimum inhibitory conc against erythromycin susceptible Staphylococcus aureus strain Smith by mouse protection test; assay type: functional
[17] = system: Streptococcus pneumoniae; test: In vitro antibacterial activity against erythromycin- susceptible Streptococcus pneumoniae IID553 strain; assay type: functional
[18] = system: Mus musculus; test: as §1; assay type: functional
[19] = system: Staphylococcus aureus; test: In vitro antibacterial activity against inducibly MLS B resistant Staphylococcus aureus B1 strain; assay type: functional
[20] = system: Staphylococcus aureus; test: In vivo Minimum inhibitory conc against erythromycin susceptible Staphylococcus aureus Smith strain by mouse protection test; assay type: functional
[21] = system: Enterococcus faecium; test: In vitro antibacterial activity against erythromycin-susceptible Enterococcus faecium ATCC 19434 strain
[22] = system: Staphylococcus aureus; test: In vitro antibacterial activity against constitutively MLS B resistant Staphylococcus aureus SR138 strain; assay type: functional

Row | SMILES | MIC [1] | MIC [2] | MIC [3] | further results
1 | CC[C@H]1OC(=O)[C@H](C)[C@@H](OC(=O)Cc2ccccc2)[C@H](C)[C@@H](O[C@@H]2O[C@H](C)C[C@H](N(C)C)[C@H]2O)[C@@](C)(OC)C[C@@H](C)C(=O)[C@H](C)[C@@H](O)[C@]1(C)O | 0.78 µg/mL (≈ 1.1 µM) | > 100 µg/mL | > 100 µg/mL | 
2 | CC[C@H]1OC(=O)[C@H](C)[C@@H](OC(=O)c2ccc([N+](=O)[O-])cc2)[C@H](C)[C@@H](OC2O[C@H](C)C[C@H](N(C)C)C2O)[C@@](C)(OC)C[C@@H](C)C(=O)[C@H](C)[C@@H](O)[C@]1(C)O (stereo partly specified) | 50 µg/mL (≈ 67.7 µM) | > 100 µg/mL | > 100 µg/mL | 
3 | CC[C@H]1OC(=O)[C@H](C)[C@@H](OC(=O)CNC(=O)OC(C)(C)C)[C@H](C)[C@@H](OC2O[C@H](C)C[C@H](N(C)C)C2O)[C@@](C)(OC)C[C@@H](C)C(=O)[C@H](C)[C@@H](O)[C@]1(C)O (stereo partly specified) | 12.5 µg/mL (≈ 16.7 µM) | > 100 µg/mL | > 100 µg/mL | 
4 | CC[C@H]1OC(=O)[C@H](C)[C@@H](O)[C@H](C)[C@@H](OC2O[C@H](C)C[C@H](N(C)C)C2O)[C@@](C)(OC)C[C@@H](C)C(=O)[C@H](C)[C@@H](O)[C@]1(C)O (stereo partly specified) | > 100 µg/mL |  |  | 
5 | CC[C@H]1OC(=O)[C@H](C)[C@@H](OC(C)=O)[C@H](C)[C@@H](OC2O[C@H](C)C[C@H](N(C)C)C2O)[C@@](C)(OC)C[C@@H](C)C(=O)[C@H](C)[C@@H](O)[C@]1(C)O (stereo partly specified) | 50 µg/mL (≈ 79.1 µM) | > 100 µg/mL | > 100 µg/mL | 
6 | CC[C@H]1OC(=O)[C@H](C)[C@@H](OS(=O)(=O)Cc2ccccc2)[C@H](C)[C@@H](OC2O[C@H](C)C[C@H](N(C)C)C2O)[C@@](C)(OC)C[C@@H](C)C(=O)[C@H](C)[C@@H](O)[C@]1(C)O (stereo partly specified) | > 100 µg/mL |  |  | 
7 | CC[C@H]1OC(=O)[C@H](C)[C@@H](OC2CCCCO2)[C@H](C)[C@@H](OC2O[C@H](C)C[C@H](N(C)C)C2O)[C@@](C)(OC)C[C@@H](C)C(=O)[C@H](C)[C@@H](O)[C@]1(C)O (stereo partly specified) | 12.5 µg/mL (≈ 18.5 µM) | > 100 µg/mL | > 100 µg/mL | 
8 | CC[C@H]1OC(=O)[C@H](C)[C@@H](OC(=O)Cc2ccc([N+](=O)[O-])cc2)[C@H](C)[C@@H](O[C@@H]2O[C@H](C)C[C@H](N(C)C)[C@H]2O)[C@@](C)(OC)C[C@@H](C)C(=O)[C@H](C)[C@@H](O)[C@]1(C)O | 0.2 µg/mL (≈ 0.266 µM) | 0.39 µg/mL (≈ 0.518 µM) | > 100 µg/mL | MIC [4]: 25 µg/mL (≈ 33.2 µM); MIC [5]: 0.39 µg/mL (≈ 0.518 µM); ED50 [6]: 15.4 mg/kg; MIC [7]: 0.2 µg/mL (≈ 0.266 µM); MIC [8]: > 100 µg/mL; MIC [9]: 0.2 µg/mL (≈ 0.266 µM); MIC [10]: 0.05 µg/mL (≈ 0.0664 µM); MIC [11]: 0.2 µg/mL (≈ 0.266 µM)
9 | CC[C@H]1OC(=O)[C@H](C)[C@@H](OC(=O)CC#N)[C@H](C)[C@@H](OC2O[C@H](C)C[C@H](N(C)C)C2O)[C@@](C)(OC)C[C@@H](C)C(=O)[C@H](C)[C@@H](O)[C@]1(C)O (stereo partly specified) | 25 µg/mL (≈ 38.1 µM) | > 100 µg/mL | > 100 µg/mL | 
10 | CC[C@H]1OC(=O)[C@H](C)[C@@H](O[C@H]2C[C@@](C)(OC)[C@@H](O)[C@H](C)O2)[C@H](C)[C@@H](O[C@@H]2O[C@H](C)C[C@H](N(C)C)[C@H]2O)[C@](C)(O)C[C@@H](C)C(=O)[C@H](C)[C@@H](O)[C@]1(C)O [ERYTHROMYCIN] |  |  |  | MIC [12]: 3.13 µg/mL (≈ 4.26 µM); MIC [4]: 6.25 µg/mL (≈ 8.52 µM); ED50 [13]: 56.6 mg/kg; MIC [14]: > 100 µg/mL; MIC [15]: 1.56 µg/mL (≈ 2.13 µM); MIC [11]: 1.56 µg/mL (≈ 2.13 µM); MIC [16]: 0.2 µg/mL (≈ 0.273 µM); MIC [17]: 0.1 µg/mL (≈ 0.136 µM)
11 | CC[C@H]1OC(=O)[C@H](C)[C@@H](OC(=O)CN)[C@H](C)[C@@H](OC2O[C@H](C)C[C@H](N(C)C)C2O)[C@@](C)(OC)C[C@@H](C)C(=O)[C@H](C)[C@@H](O)[C@]1(C)O (stereo partly specified) | 12.5 µg/mL (≈ 19.3 µM) | > 100 µg/mL | > 100 µg/mL | 
12 | CC[C@H]1OC(=O)[C@H](C)[C@@H](OC(=O)CNC(=O)OCc2ccccc2)[C@H](C)[C@@H](OC2O[C@H](C)C[C@H](N(C)C)C2O)[C@@](C)(OC)C[C@@H](C)C(=O)[C@H](C)[C@@H](O)[C@]1(C)O (stereo partly specified) | 3.13 µg/mL (≈ 4.01 µM) | > 100 µg/mL | > 100 µg/mL | 
13 | CC[C@H]1OC(=O)[C@H](C)[C@@H](O[C@H]2C[C@@](C)(OC)[C@@H](O)[C@H](C)O2)[C@H](C)[C@@H](O[C@@H]2O[C@H](C)C[C@H](N(C)C)[C@H]2O)[C@](C)(OC)C[C@@H](C)C(=O)[C@H](C)[C@@H](O)[C@]1(C)O [CLARITHROMYCIN] | 0.1 µg/mL (≈ 0.134 µM) |  |  | MIC [4]: 6.25 µg/mL (≈ 8.36 µM); ED50 [18]: 7.6 mg/kg; MIC [7]: 1.56 µg/mL (≈ 2.09 µM); MIC [8]: > 100 µg/mL; MIC [9]: 0.05 µg/mL (≈ 0.0668 µM); MIC [19]: > 100 µg/mL; MIC [20]: 0.2 µg/mL (≈ 0.267 µM); MIC [11]: 1.56 µg/mL (≈ 2.09 µM); MIC [21]: 1.56 µg/mL (≈ 2.09 µM); MIC [22]: > 100 µg/mL
